Laboratory results reported in the supplement of paper PMC10307832.

Tests used:
Test in all cases: relative viability (nuclei count vs DMSO), 5 days (fraction); higher = more cells survive
NCI-H358 = test system: NCI-H358
Outline: (§1)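 The day after seeding in 1536-well plates, lung cancer cell lines were treated by pin tool with a single drug, or with a fixed anchor-drug dose together with five library-drug doses (not always all listed) in √10 steps. After 5 days, a combined fix-and-stain solution (final 0.05% Triton X-100, 1% formaldehyde, 1 ug/ml Hoechst) was added. Nuclei counted on 4× images gave relative viability as treated counts over vehicle counts, reported as the median of duplicate plates.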

NCI-H1792 = test system: NCI-H1792
Outline: as §1

NCI-H1755 = test system: NCI-H1755
Outline: as §1

COR-L23 = test system: COR-L23
Outline: as §1

PC-14 = test system: PC-14
Outline: as §1

LC-2-ad = test system: LC-2-ad
Outline: as §1

NCI-H2023 = test system: NCI-H2023
Outline: as §1

NCI-H1915 = test system: NCI-H1915
Outline: as §1

NCI-H1395 = test system: NCI-H1395
Outline: as §1

NCI-H650 = test system: NCI-H650
Outline: as §1

NCI-H2342 = test system: NCI-H2342
Outline: as §1

HCC-366 = test system: HCC-366
Outline: as §1

EMC-BAC-2 = test system: EMC-BAC-2
Outline: as §1

HCC-15 = test system: HCC-15
Outline: as §1

NCI-H1437 = test system: NCI-H1437
Outline: as §1

SK-MES-1 = test system: SK-MES-1
Outline: as §1

NCI-H23 = test system: NCI-H23
Outline: as §1

NCI-H2009 = test system: NCI-H2009
Outline: as §1

COR-L 105 = test system: COR-L 105
Outline: as §1

NCI-H2347 = test system: NCI-H2347
Outline: as §1

201T = test system: 201T
Outline: as §1

NCI-H1793 = test system: NCI-H1793
Outline: as §1

Structure (SMILES): Cc1csc(=NC2CCCCC2)n1/N=C/c1ccc(O)c(O)c1O [MIM1] + Cc1nc(Nc2ncc(C(=O)Nc3c(C)cccc3Cl)s2)cc(N2CCN(CCO)CC2)n1 [Dasatinib] (partner 0.075 µM)
- relative viability (NCI-H358; first compound 0.2 µM): 0.182
- relative viability (NCI-H358; first compound 0.6325 µM): 0.174
- relative viability (NCI-H358; first compound 2 µM): 0.179
- relative viability (NCI-H358; first compound 6.325 µM): 0.173
- relative viability (NCI-H358; first compound 20 µM): 0.126
- relative viability (NCI-H1792; first compound 0.2 µM): 0.786
- relative viability (NCI-H1792; first compound 0.6325 µM): 0.661
- relative viability (NCI-H1792; first compound 2 µM): 0.716
- relative viability (NCI-H1792; first compound 6.325 µM): 0.757
- relative viability (NCI-H1792; first compound 20 µM): 0.808
- relative viability (NCI-H1755; first compound 0.2 µM): 0.467
- relative viability (NCI-H1755; first compound 0.6325 µM): 0.442
- relative viability (NCI-H1755; first compound 2 µM): 0.424
- relative viability (NCI-H1755; first compound 6.325 µM): 0.391
- relative viability (NCI-H1755; first compound 20 µM): 0.23
- relative viability (COR-L23; first compound 0.2 µM): 0.449
- relative viability (COR-L23; first compound 0.6325 µM): 0.552
- relative viability (COR-L23; first compound 2 µM): 0.464
- relative viability (COR-L23; first compound 6.325 µM): 0.327
- relative viability (COR-L23; first compound 20 µM): 0.335
- relative viability (PC-14; first compound 0.2 µM): 0.301
- relative viability (PC-14; first compound 0.6325 µM): 0.27
- relative viability (PC-14; first compound 2 µM): 0.171
- relative viability (PC-14; first compound 6.325 µM): 0.233
- relative viability (PC-14; first compound 20 µM): 0.0786
- relative viability (LC-2-ad; first compound 0.2 µM): 0.834
- relative viability (LC-2-ad; first compound 0.6325 µM): 0.413
- relative viability (LC-2-ad; first compound 2 µM): 0.527
- relative viability (LC-2-ad; first compound 6.325 µM): 0.411
- relative viability (LC-2-ad; first compound 20 µM): 0.142
- relative viability (NCI-H2023; first compound 0.2 µM): 0.519
- relative viability (NCI-H2023; first compound 0.6325 µM): 0.719
- relative viability (NCI-H2023; first compound 2 µM): 0.435
- relative viability (NCI-H2023; first compound 6.325 µM): 0.249
- relative viability (NCI-H2023; first compound 20 µM): 0.0702
- relative viability (NCI-H1915; first compound 0.2 µM): 0.354
- relative viability (NCI-H1915; first compound 0.6325 µM): 0.293
- relative viability (NCI-H1915; first compound 2 µM): 0.325
- relative viability (NCI-H1915; first compound 6.325 µM): 0.269
- relative viability (NCI-H1915; first compound 20 µM): 0.187
- relative viability (NCI-H1395; first compound 0.2 µM): 0.504
- relative viability (NCI-H1395; first compound 0.6325 µM): 0.465
- relative viability (NCI-H1395; first compound 2 µM): 0.381
- relative viability (NCI-H1395; first compound 6.325 µM): 0.443
- relative viability (NCI-H1395; first compound 20 µM): 0.303
- relative viability (NCI-H650; first compound 0.2 µM): 0.496
- relative viability (NCI-H650; first compound 0.6325 µM): 0.435
- relative viability (NCI-H650; first compound 2 µM): 0.459
- relative viability (NCI-H650; first compound 6.325 µM): 0.416
- relative viability (NCI-H650; first compound 20 µM): 0.301
- relative viability (NCI-H2342; first compound 0.2 µM): 0.319
- relative viability (NCI-H2342; first compound 0.6325 µM): 0.316
- relative viability (NCI-H2342; first compound 2 µM): 0.331
- relative viability (NCI-H2342; first compound 6.325 µM): 0.299
- relative viability (NCI-H2342; first compound 20 µM): 0.418
- relative viability (HCC-366; first compound 0.2 µM): 0.622
- relative viability (HCC-366; first compound 2 µM): 0.65
- relative viability (HCC-366; first compound 6.325 µM): 0.388
- relative viability (HCC-366; first compound 20 µM): 0.0615
- relative viability (EMC-BAC-2; first compound 0.2 µM): 0.218
- relative viability (EMC-BAC-2; first compound 0.6325 µM): 0.302
- relative viability (EMC-BAC-2; first compound 2 µM): 0.317
- relative viability (EMC-BAC-2; first compound 6.325 µM): 0.31
- relative viability (EMC-BAC-2; first compound 20 µM): 0.179
- relative viability (HCC-15; first compound 0.2 µM): 0.635
- relative viability (HCC-15; first compound 2 µM): 0.57
- relative viability (HCC-15; first compound 6.325 µM): 0.359
- relative viability (HCC-15; first compound 20 µM): 0.101
- relative viability (NCI-H1437; first compound 0.2 µM): 0.456
- relative viability (NCI-H1437; first compound 0.6325 µM): 0.406
- relative viability (NCI-H1437; first compound 2 µM): 0.55
- relative viability (NCI-H1437; first compound 6.325 µM): 0.285
- relative viability (NCI-H1437; first compound 20 µM): 0.151
- relative viability (SK-MES-1; first compound 0.2 µM): 0.369
- relative viability (SK-MES-1; first compound 0.6325 µM): 0.371
- relative viability (SK-MES-1; first compound 2 µM): 0.259
- relative viability (SK-MES-1; first compound 6.325 µM): 0.27
- relative viability (SK-MES-1; first compound 20 µM): 0.367
- relative viability (NCI-H23; first compound 0.2 µM): 0.826
- relative viability (NCI-H23; first compound 2 µM): 0.684
- relative viability (NCI-H23; first compound 6.325 µM): 0.471
- relative viability (NCI-H23; first compound 20 µM): 0.246
- relative viability (NCI-H2009; first compound 0.2 µM): 0.303
- relative viability (NCI-H2009; first compound 0.6325 µM): 0.327
- relative viability (NCI-H2009; first compound 2 µM): 0.293
- relative viability (NCI-H2009; first compound 6.325 µM): 0.204
- relative viability (NCI-H2009; first compound 20 µM): 0.123
- relative viability (COR-L 105; first compound 0.2 µM): 0.356
- relative viability (COR-L 105; first compound 0.6325 µM): 0.424
- relative viability (COR-L 105; first compound 2 µM): 0.339
- relative viability (COR-L 105; first compound 6.325 µM): 0.29
- relative viability (COR-L 105; first compound 20 µM): 0.292
- relative viability (NCI-H2347; first compound 0.2 µM): 0.298
- relative viability (NCI-H2347; first compound 0.6325 µM): 0.284
- relative viability (NCI-H2347; first compound 2 µM): 0.291
- relative viability (NCI-H2347; first compound 6.325 µM): 0.339
- relative viability (NCI-H2347; first compound 20 µM): 0.26
- relative viability (201T; first compound 0.2 µM): 0.612
- relative viability (201T; first compound 0.6325 µM): 0.614
- relative viability (201T; first compound 2 µM): 0.598
- relative viability (201T; first compound 6.325 µM): 0.422
- relative viability (201T; first compound 20 µM): 0.445
- relative viability (NCI-H1793; first compound 0.2 µM): 0.417
- relative viability (NCI-H1793; first compound 2 µM): 0.372
- relative viability (NCI-H1793; first compound 6.325 µM): 0.359
- relative viability (NCI-H1793; first compound 20 µM): 0.31
